Assay results reported in patent publication US20240217966A1, “PHARMACEUTICAL COMPOSITION CONTAINING GLP-1 RECEPTOR AGONIST HAVING FUSED RING” (Shionogi & Co., Ltd., priority 2021, published 2024).
Values joined by “and” are separate entries in the source; they are usually repeats but may differ in a detail not shown here. Equal entries are not always repeated. Where two headings read alike, the source gives them in different places.

Columns and labels:
Human GLP-1 receptor = molecular target: T1, Human GLP-1 receptor (Homo sapiens, UniProt P43220); assay: Measurement of GLP-1 receptor agonist activity (cAMP assay); type: cell-based
T1 construct: expressed in transfected cells
T1 sequence (P43220 24-463): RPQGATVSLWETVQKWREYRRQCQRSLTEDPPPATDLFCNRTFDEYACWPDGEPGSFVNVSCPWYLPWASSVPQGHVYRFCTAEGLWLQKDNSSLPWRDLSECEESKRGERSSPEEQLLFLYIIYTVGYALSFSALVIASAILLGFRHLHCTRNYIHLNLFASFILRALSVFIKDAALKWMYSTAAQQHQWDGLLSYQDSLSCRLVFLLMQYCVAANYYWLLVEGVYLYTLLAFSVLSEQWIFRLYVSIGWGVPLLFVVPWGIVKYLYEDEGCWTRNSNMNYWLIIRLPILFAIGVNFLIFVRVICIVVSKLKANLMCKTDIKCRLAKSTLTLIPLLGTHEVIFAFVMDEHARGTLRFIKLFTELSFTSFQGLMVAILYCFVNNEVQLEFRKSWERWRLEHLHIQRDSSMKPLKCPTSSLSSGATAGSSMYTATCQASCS
Outline: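 hGLP-1R/CHO-K1 cells in HBSS with 0.1% BSA, 20 mM HEPES, 0.1 mM IBMX and 0.2 mM RO20-1724 exposed to compound plus forskolin (400 μM stock) for 1 h at 37 °C. Intracellular cAMP read by HTRF (cAMP-d2/anti-cAMP cryptate, 1 h at room temperature).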

[1] = Metabolism stability test (Test Example 2-2); type: in vitro ADME; details: pooled human liver microsomes 0.5 mg protein/mL, 37° C., 30 minutes, 1 mmol/L NADPH (oxidative reaction), compound concentration 0.5 μmol/L
Procedure: Test Example 2-2: Metabolism Stability Test
Using commercially available pooled human liver microsomes, a compound of the present invention is reacted for a constant time, and a remaining rate is calculated by comparing a reacted sample and an unreacted sample, thereby, a degree of metabolism in liver is assessed.
A reaction is performed (oxidative reaction) at 37° C. for 0 minute or 30 minutes in the presence of 1 mmol/L NADPH in 0.2 mL of a buffer (50 mmol/L Tris-HCl pH 7.4, 150 mmol/L potassium chloride, 10 mmol/L magnesium chloride) containing 0.5 mg protein/mL of human liver microsomes. After the reaction, 70 μL of the reaction solution is added to 140 μL of a methanol/acetonitrile=1/1 (v/v), mixed and centrifuged at 3000 rpm for 15 minutes. The compound of the present invention in the centrifuged supernatant is quantified by LC/MS/MS or solid-phase extraction (SPE)/MS. The ratio of the amount of the compound after the reaction, with respect to the amount of the compound at 0 minutes of the reaction defined as 100%, is shown as the residual rate. Hydrolysis reaction is performed in the absence of NADPH, and glucuronidation reaction is performed in the presence of 5 mmol/L UDP-glucuronic acid instead of NADPH. Then, the same operation is carried out. The dilution concentration or the dilution solvent are changed as necessary.
The compounds of the present invention were tested essentially as described above.

[2] = CHO-K1, hGLP-1R/CHO-K1 cells, cAMP, 100% = human GLP-1 (7-36) at 2 nM, 0% = DMSO only, read-out: Emax(%)
[3] = hGLP-1R/CHO-K1 cells, cAMP increase, 37° C. 1 hour
[4] = CHO-K1, maximum effect, cAMP increase in GLP-1 R/CHO-K1 cells, 2 nM human GLP-1 (7-36) = 100%, DMSO only = 0%, read-out: Emax
[5] = cAMP increase in GLP-1 R/CHO-K1 cells, 2 nM human GLP-1 (7-36) = 100%, DMSO only = 0%

SMILES | Emax (Human GLP-1 receptor; [4]) [%] | EC50 (Human GLP-1 receptor; [5]) | other results
O=C(O)c1cc(F)c2nc(CN3CCc4cc(C(F)(F)F)c(OCc5ccc(Cl)cc5F)cc4C3)n(C[C@@H]3CCO3)c2c1 [Compound I-033] | – | – | Emax (Human GLP-1 receptor; [2]): 109%; EC50 (Human GLP-1 receptor; [3]): 1.49 nM; residual rate of the compound [1]: 87.1%
C[C@H]1c2cc(OCc3ccc(Cl)cc3F)c(C(F)(F)F)cc2CCN1Cc1nc2ccc(C(=O)O)cc2n1C[C@@H]1CCO1 [Compound I-035] | – | – | Emax (Human GLP-1 receptor; [2]): 129%; EC50 (Human GLP-1 receptor; [3]): 0.298 nM; residual rate of the compound [1]: 87.1%
O=C(O)c1ccc2nc(Cc3ccc4nc(C(F)(F)F)c(OCc5ccc(Cl)cc5F)nc4c3F)n(C[C@@H]3CCO3)c2c1 [Compound I-109] | – | – | Emax (Human GLP-1 receptor; [2]): 114%; EC50 (Human GLP-1 receptor; [3]): 0.472 nM; residual rate of the compound [1]: 99.6%
C[C@H]1c2cc(OCc3ccc(Cl)cc3F)c(C(F)(F)F)cc2CCN1Cc1nc2ccc(C(=O)O)c(F)c2n1C[C@@H]1CCO1 [Compound I-117] | – | – | Emax (Human GLP-1 receptor; [2]): 117%; EC50 (Human GLP-1 receptor; [3]): 0.327 nM; residual rate of the compound [1]: 96.9%
C[C@H]1c2nc(OCc3c(F)cc(F)cc3F)c(C(F)(F)F)cc2CCN1Cc1nc2ccc(C(=O)O)c(F)c2n1C[C@@H]1CCO1 [Compound I-361] | 108 | 0.0778 nM | –
C[C@H]1c2nc(OCc3c(F)cc(Cl)cc3F)c(C(F)(F)F)cc2CCN1Cc1nc2ccc(C(=O)O)c(F)c2n1C[C@@H]1CCO1 [Compound I-362] | 133 | 0.0408 nM | –
COc1cc(C(=O)O)cc2c1nc(CN1CCc3cc(C(F)(F)F)c(OCc4ccc(C5CC5)cc4)nc3[C@@H]1C)n2C[C@@H]1CCO1 [Compound I-375] | 103 | 0.0814 nM | –
O=C(O)c1cc(F)c2nc(CN3CCc4cc(C(F)(F)F)c(OCc5ccc(Cl)cc5)nc4C3)n(C[C@@H]3CCO3)c2c1 [Compound I-380] | 108 | 0.382 nM | –
Cc1ccc(COc2nc3c(cc2C(F)(F)F)CCN(Cc2nc4c(F)cc(C(=O)O)cc4n2C[C@@H]2CCO2)C3)cc1 [Compound I-381] | 116 | 0.702 nM | –
COc1cc(C(=O)O)cc2c1nc(CN1CCc3cc(C(F)(F)F)c(OCc4ccc(Cl)cc4)nc3C1)n2C[C@@H]1CCO1 [Compound I-386] | 112 | 0.0877 nM | –
COc1cc(C(=O)O)cc2c1nc(CN1CCc3cc(C(F)(F)F)c(OCc4ccc(C)cc4)nc3C1)n2C[C@@H]1CCO1 [Compound I-387] | 122 | 0.178 nM | –
COc1cc(Cl)ccc1COc1nc2c(cc1C(F)(F)F)CCN(Cc1nc3c(OC)cc(C(=O)O)cc3n1C[C@@H]1CCO1)C2 [Compound I-388] | 115 | 0.0523 nM | –
COc1cc(C(=O)O)cc2c1nc(CN1CCc3cc(C(F)(F)F)c(OCc4ccc(Cl)cc4Cl)nc3C1)n2C[C@@H]1CCO1 [Compound I-389] | 115 | 0.05 nM | –
C[C@H]1c2nc(OCc3ccc(Cl)cn3)c(C(F)(F)F)cc2CCN1Cc1nc2ccc(C(=O)O)nc2n1C[C@@H]1CCO1 [Compound I-391] | 107 | 0.396 nM | –
C[C@H]1c2nc(OCc3ccc(Cl)cc3F)c(I)cc2CCN1Cc1nc2ccc(C(=O)O)cc2n1C[C@@H]1CCO1 [Compound I-393] | 121 | 0.099 nM | –
C[C@H]1c2nc(OCc3ccc(Cl)cc3F)c(C(F)F)cc2CCN1Cc1nc2ccc(C(=O)O)cc2n1C[C@@H]1CCO1 [Compound I-394] | 108 | 0.0497 nM | –
C[C@H]1c2nc(OCc3ccc(Cl)cc3F)ccc2CCN1Cc1nc2ccc(C(=O)O)cc2n1C[C@@H]1CCO1 [Compound I-395] | 89.7 | 0.618 nM | –

Further lines, with some results ahead:

Emax (Human GLP-1 receptor; [4]) [%] | EC50 (Human GLP-1 receptor; [5]) | SMILES | other results
123 | 0.0474 nM | C[C@H]1c2nc(OCc3ccc(F)cc3F)c(C(F)(F)F)cc2CCN1Cc1nc2ccc(C(=O)O)c(F)c2n1C[C@@H]1CCO1 [Compound I-359] | –
115 | 0.104 nM | C[C@H]1c2nc(OCc3ccc(OC(F)F)cc3F)c(C(F)(F)F)cc2CCN1Cc1nc2ccc(C(=O)O)c(F)c2n1C[C@@H]1CCO1 [Compound I-360] | –
115 | 0.0911 nM | Cc1ccc(COc2nc3c(cc2C(F)(F)F)CCN(Cc2nc4c(F)cc(C(=O)O)cc4n2C[C@@H]2CCO2)[C@H]3C)cc1 [Compound I-363] | –
118 | 0.148 nM | COc1ccc(COc2nc3c(cc2C(F)(F)F)CCN(Cc2nc4c(F)cc(C(=O)O)cc4n2C[C@@H]2CCO2)[C@H]3C)cc1 [Compound I-364] | –
115 | 0.0736 nM | C[C@H]1c2nc(OCc3ccc(Cl)cn3)c(C(F)(F)F)cc2CCN1Cc1nc2c(F)cc(C(=O)O)cc2n1C[C@@H]1CCO1 [Compound I-365] | –
114 | 0.421 nM | C[C@H]1c2nc(OCc3ccc(C4CC4)cc3)c(C(F)(F)F)cc2CCN1Cc1nc2c(F)cc(C(=O)O)cc2n1C[C@@H]1CCO1 [Compound I-366] | –
107 | 0.0214 nM | COc1cc(Cl)ccc1COc1nc2c(cc1C(F)(F)F)CCN(Cc1nc3c(F)cc(C(=O)O)cc3n1C[C@@H]1CCO1)[C@H]2C [Compound I-367] | –
120 | 0.136 nM and 0.2 nM | C[C@H]1c2nc(OCc3ccccc3Cl)c(C(F)(F)F)cc2CCN1Cc1nc2c(F)cc(C(=O)O)cc2n1C[C@@H]1CCO1 [Compound I-368] | Emax (Human GLP-1 receptor; maximum effect, cAMP increase in GLP-1 R/CHO-K1 cells, 2 nM human GLP-1 (7-36) = 100%, DMSO only = 0%): 102%
112 | 0.0526 nM | C[C@H]1c2nc(OCc3ccc(F)cc3F)c(C(F)(F)F)cc2CCN1Cc1nc2c(F)cc(C(=O)O)cc2n1C[C@@H]1CCO1 [Compound I-369] | –
109 | 0.143 nM | C[C@H]1c2nc(OCc3ccc(OC(F)F)cc3F)c(C(F)(F)F)cc2CCN1Cc1nc2c(F)cc(C(=O)O)cc2n1C[C@@H]1CCO1 [Compound I-370] | –
122 | 0.0495 nM | C[C@H]1c2nc(OCc3c(F)cc(F)cc3F)c(C(F)(F)F)cc2CCN1Cc1nc2c(F)cc(C(=O)O)cc2n1C[C@@H]1CCO1 [Compound I-371] | –
117 | 0.023 nM | C[C@H]1c2nc(OCc3c(F)cc(Cl)cc3F)c(C(F)(F)F)cc2CCN1Cc1nc2c(F)cc(C(=O)O)cc2n1C[C@@H]1CCO1 [Compound I-372] | –
122 | 0.0194 nM | COc1cc(C(=O)O)cc2c1nc(CN1CCc3cc(C(F)(F)F)c(OCc4ccc(C)cc4)nc3[C@@H]1C)n2C[C@@H]1CCO1 [Compound I-373] | –
100 | 0.0208 nM | COc1cc(C(=O)O)cc2c1nc(CN1CCc3cc(C(F)(F)F)c(OCc4ccc(Cl)cc4)nc3[C@@H]1C)n2C[C@@H]1CCO1 [Compound I-374] | –
106 | 0.0152 nM | COc1cc(Cl)ccc1COc1nc2c(cc1C(F)(F)F)CCN(Cc1nc3c(OC)cc(C(=O)O)cc3n1C[C@@H]1CCO1)[C@H]2C [Compound I-376] | –
126 | 0.0176 nM | COc1cc(C(=O)O)cc2c1nc(CN1CCc3cc(C(F)(F)F)c(OCc4ccc(Cl)cc4Cl)nc3[C@@H]1C)n2C[C@@H]1CCO1 [Compound I-377] | –
95.3 | 0.0146 nM | COc1cc(C(=O)O)cc2c1nc(CN1CCc3cc(C(F)(F)F)c(OCc4cc(F)c(Cl)cc4F)nc3[C@@H]1C)n2C[C@@H]1CCO1 [Compound I-378] | –
96 | 0.0121 nM | COc1cc(C(=O)O)cc2c1nc(CN1CCc3cc(C(F)(F)F)c(OCc4c(F)cc(Cl)cc4F)nc3[C@@H]1C)n2C[C@@H]1CCO1 [Compound I-379] | –
125 | 0.159 nM | COc1cc(Cl)ccc1COc1nc2c(cc1C(F)(F)F)CCN(Cc1nc3c(F)cc(C(=O)O)cc3n1C[C@@H]1CCO1)C2 [Compound I-382] | –
109 | 0.516 nM | O=C(O)c1cc(F)c2nc(CN3CCc4cc(C(F)(F)F)c(OCc5ccc(F)cc5F)nc4C3)n(C[C@@H]3CCO3)c2c1 [Compound I-383] | –
114 | 0.126 nM | O=C(O)c1cc(F)c2nc(CN3CCc4cc(C(F)(F)F)c(OCc5ccc(Cl)cc5Cl)nc4C3)n(C[C@@H]3CCO3)c2c1 [Compound I-384] | –
112 | – | O=C(O)c1cc(F)c2nc(CN3CCc4cc(C(F)(F)F)c(OCc5ccc(Cl)cc5F)nc4C3)n(C[C@@H]3CCO3)c2c1 [Compound I-385] | –
107 | 0.046 nM | COc1cc(C(=O)O)cc2c1nc(CN1CCc3cc(C(F)(F)F)c(OCc4ccc(Cl)cc4F)nc3C1)n2C[C@@H]1CCO1 [Compound I-390] | –
135 | 0.0156 nM | COc1cc(C(=O)O)cc2c1nc(CN1CCc3cc(C(F)(F)F)c(OCc4ccc(Cl)cn4)nc3[C@@H]1C)n2C[C@@H]1CCO1 [Compound I-392] | –
